# Experimental data published in ChEMBL document CHEMBL1201862, “PubChem BioAssay data set” (2004).
# The source made the active and inactive calls.
# What was measured:
# [1] = target: Long-chain-fatty-acid--AMP ligase FadD28 (Mycobacterium tuberculosis, UniProt P9WQ59); test: Fluorescence polarization aasay to screen for inhibitors that compete for the binding of FadD28 to a bisubstrate Measured in Biochemical System Using Plate Reader - 2147-01_Inhibitor_Dose_CherryPick_Activity.; assay type: functional, Mycobacterium tuberculosis H37Rv
# Long-chain-fatty-acid--AMP ligase FadD28, sequence (P9WQ59 whole entry): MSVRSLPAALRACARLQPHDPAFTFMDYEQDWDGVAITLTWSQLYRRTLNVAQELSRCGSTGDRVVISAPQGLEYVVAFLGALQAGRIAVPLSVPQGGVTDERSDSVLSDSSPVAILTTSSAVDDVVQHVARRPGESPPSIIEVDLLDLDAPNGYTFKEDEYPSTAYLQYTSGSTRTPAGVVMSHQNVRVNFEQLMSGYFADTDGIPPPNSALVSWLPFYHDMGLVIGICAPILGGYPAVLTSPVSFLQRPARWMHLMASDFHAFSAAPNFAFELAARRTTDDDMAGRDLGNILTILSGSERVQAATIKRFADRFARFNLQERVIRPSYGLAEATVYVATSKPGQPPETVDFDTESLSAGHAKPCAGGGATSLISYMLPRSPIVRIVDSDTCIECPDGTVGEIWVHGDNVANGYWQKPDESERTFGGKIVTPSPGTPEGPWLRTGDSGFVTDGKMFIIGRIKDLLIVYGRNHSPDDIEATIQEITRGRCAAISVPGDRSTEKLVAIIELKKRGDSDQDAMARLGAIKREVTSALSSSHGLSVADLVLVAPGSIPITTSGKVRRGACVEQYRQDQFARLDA
# [2] = target: T1, Zinc finger protein mex-5 (Caenorhabditis elegans, UniProt Q9XUB2); test: MEX-5/TCR-2 RNA interaction inhibitors, dose response, biochemical, C. elegans, fluorescence polarization (AID 1960)
# T1 sequence (Q9XUB2 whole entry): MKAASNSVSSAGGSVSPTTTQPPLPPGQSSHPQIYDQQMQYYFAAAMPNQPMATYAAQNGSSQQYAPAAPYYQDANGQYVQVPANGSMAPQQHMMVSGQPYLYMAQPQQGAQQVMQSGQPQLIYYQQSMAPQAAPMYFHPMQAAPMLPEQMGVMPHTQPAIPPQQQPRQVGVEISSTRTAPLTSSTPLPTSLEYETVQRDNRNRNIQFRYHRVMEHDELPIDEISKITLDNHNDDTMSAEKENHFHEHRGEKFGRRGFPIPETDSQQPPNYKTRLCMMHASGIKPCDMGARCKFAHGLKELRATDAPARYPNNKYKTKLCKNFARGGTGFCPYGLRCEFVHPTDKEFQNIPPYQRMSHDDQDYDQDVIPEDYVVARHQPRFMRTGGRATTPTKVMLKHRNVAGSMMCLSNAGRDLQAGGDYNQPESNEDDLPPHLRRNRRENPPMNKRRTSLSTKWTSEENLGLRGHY
# [3] = target: T2, RNA-binding protein pos-1 (Caenorhabditis elegans, UniProt G5EF15); test: inhibitors of POS-1/mex-3 RNA binding, dose response, biochemical, fluorescence polarization (AID 1964);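 note: purified POS-1 fused to maltose binding protein made in E. coli; potency of compounds blocking POS-1 binding to fluorescent RNA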
# T2 sequence (G5EF15 whole entry): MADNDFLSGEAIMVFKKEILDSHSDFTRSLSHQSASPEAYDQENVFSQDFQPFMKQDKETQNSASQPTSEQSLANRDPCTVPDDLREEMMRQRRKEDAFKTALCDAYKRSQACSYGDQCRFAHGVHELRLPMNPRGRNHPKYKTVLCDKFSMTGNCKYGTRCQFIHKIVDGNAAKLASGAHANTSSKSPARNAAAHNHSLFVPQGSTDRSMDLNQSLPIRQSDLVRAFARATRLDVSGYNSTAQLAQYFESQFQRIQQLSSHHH
# [4] = target: T3, Rac GTPase-activating protein 1 (Homo sapiens, UniProt Q9H0H5); test: MgcRacGAP GTPase-activating activity inhibitors, confirmation, biochemical, ADP Hunter fluorescence, primary and confirmatory (AID 624330); assay type: functional
# T3 sequence (Q9H0H5 whole entry): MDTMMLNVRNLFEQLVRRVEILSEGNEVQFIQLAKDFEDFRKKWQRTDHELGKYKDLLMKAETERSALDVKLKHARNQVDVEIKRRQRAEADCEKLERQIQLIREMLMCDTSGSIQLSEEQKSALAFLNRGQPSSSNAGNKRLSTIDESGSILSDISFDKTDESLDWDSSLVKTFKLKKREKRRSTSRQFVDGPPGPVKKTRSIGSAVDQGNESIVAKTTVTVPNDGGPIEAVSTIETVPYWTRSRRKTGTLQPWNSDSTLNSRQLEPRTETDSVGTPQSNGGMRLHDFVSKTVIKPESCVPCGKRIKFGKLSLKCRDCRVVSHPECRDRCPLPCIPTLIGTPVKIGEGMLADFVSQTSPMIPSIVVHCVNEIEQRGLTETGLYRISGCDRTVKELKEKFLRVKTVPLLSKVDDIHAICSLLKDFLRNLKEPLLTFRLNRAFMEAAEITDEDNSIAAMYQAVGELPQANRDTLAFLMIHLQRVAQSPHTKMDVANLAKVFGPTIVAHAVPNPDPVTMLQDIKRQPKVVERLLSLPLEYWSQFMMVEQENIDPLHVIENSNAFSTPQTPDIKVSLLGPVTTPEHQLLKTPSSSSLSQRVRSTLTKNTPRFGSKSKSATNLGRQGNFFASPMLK
# [5] = target: T4, Sentrin-specific protease 8 (Homo sapiens, UniProt Q96LD8); assay type: functional
# T4 sequence (Q96LD8 whole entry): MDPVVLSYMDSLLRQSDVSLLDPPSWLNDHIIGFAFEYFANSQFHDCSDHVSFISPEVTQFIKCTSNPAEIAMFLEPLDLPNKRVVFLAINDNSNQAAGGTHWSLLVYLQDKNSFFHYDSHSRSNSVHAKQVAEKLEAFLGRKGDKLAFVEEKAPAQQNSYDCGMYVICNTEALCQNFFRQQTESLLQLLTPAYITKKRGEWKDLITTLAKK
# [6] = target: T5, Replicative DNA helicase DnaB (Mycobacterium tuberculosis, UniProt P9WMR3); test: DnaB intein splicing inhibitors, dose response, biochemical, cell-free fluorescence (AID 449749); assay type: functional
# T5 sequence (P9WMR3 whole entry): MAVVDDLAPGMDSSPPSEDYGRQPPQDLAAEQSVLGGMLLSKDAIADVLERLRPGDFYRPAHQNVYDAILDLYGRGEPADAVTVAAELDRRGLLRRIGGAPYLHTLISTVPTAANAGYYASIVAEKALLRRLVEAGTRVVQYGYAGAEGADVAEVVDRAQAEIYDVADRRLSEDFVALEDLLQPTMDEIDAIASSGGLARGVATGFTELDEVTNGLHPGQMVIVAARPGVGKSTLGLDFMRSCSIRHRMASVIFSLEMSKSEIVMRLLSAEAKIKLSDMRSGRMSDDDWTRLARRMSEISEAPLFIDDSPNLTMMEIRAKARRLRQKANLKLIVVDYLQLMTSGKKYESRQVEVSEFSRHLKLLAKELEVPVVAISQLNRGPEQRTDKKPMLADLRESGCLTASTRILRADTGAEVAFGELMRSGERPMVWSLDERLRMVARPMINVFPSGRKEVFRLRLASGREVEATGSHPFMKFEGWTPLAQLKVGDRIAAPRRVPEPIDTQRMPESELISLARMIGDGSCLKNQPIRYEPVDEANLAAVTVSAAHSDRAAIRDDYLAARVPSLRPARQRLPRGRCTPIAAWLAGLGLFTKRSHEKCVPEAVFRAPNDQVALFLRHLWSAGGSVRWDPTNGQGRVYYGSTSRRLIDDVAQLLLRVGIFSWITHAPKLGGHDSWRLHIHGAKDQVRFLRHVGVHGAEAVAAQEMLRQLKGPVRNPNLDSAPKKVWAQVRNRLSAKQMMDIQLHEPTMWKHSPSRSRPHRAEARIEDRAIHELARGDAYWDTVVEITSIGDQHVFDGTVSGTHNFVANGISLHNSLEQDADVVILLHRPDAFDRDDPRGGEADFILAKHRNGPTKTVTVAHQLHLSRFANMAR
# [7] = target: T6, Protein RecA (Mycobacterium tuberculosis, UniProt P9WHJ3); test: Fluorescence Cell-Free Homogeneous Dose Retest to Identify Inhibitors of RecA-Intein Splicing Activity. [Related pubchem assays (depositor defined):AID2097, AID2223, AID489010, AID492950]; assay type: functional
# T6 sequence (P9WHJ3 whole entry): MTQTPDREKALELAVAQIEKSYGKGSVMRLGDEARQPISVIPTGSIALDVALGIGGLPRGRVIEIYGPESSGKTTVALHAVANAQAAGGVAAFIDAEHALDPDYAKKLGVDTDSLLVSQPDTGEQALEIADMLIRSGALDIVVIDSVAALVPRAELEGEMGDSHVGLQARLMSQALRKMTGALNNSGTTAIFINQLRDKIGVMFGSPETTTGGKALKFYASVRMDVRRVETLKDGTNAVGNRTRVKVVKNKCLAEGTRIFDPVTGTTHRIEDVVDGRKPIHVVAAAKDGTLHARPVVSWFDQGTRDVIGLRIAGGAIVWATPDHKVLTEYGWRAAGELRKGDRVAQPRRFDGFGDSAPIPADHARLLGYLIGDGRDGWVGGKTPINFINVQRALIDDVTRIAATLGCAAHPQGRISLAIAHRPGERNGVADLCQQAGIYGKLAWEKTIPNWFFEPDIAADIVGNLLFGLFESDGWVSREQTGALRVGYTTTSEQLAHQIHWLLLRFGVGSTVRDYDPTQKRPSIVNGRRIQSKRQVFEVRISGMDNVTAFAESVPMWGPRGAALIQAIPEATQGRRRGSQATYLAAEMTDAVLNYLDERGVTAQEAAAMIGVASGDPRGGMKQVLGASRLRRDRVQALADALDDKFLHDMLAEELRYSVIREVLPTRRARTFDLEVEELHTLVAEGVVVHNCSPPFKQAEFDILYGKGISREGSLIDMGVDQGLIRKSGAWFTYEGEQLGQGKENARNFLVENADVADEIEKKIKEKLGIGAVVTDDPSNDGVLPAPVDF
# [8] = target: T4, Sentrin-specific protease 8; assay type: functional; remark: listed apart in the source
# [9] = target: Beta-lactamase (Pseudomonas aeruginosa, UniProt Q79MP6);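 note: biochemical dose-response test of metallo-beta-lactamase enzyme inhibition, read out by epi-absorbance; purified recombinant IMP-1 metallo-beta-lactamase with nitrocefin as substrate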
# Beta-lactamase (Pseudomonas aeruginosa, UniProt Q79MP6), sequence (Q79MP6 whole entry): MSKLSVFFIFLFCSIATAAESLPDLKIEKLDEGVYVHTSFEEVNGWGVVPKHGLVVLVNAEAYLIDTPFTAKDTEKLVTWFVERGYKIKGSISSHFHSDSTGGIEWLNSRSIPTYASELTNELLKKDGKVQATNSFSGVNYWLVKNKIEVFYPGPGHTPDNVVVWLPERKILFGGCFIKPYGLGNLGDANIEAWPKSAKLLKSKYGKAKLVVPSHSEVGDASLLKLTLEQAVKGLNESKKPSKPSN
# [10] = target: Beta-lactamase (Salmonella choleraesuis (strain SC-B67), UniProt Q5J463)
# Beta-lactamase (Salmonella choleraesuis (strain SC-B67), UniProt Q5J463), sequence (Q5J463 whole entry): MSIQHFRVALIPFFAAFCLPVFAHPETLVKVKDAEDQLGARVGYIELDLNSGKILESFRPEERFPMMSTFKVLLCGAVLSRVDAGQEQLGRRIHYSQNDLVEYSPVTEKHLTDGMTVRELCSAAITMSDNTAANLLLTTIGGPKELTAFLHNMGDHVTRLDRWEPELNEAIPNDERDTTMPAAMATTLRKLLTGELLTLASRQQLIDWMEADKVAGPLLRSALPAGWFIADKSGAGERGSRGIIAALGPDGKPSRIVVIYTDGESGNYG
# [11] = cells; assay type: functional, cell-based
# [12] = target: T7, Trace amine-associated receptor 1 (Homo sapiens, UniProt Q96RJ0); test: Counterscreen for agonists of the human trace amine associated receptor 1 (hTAAR1): Fluorescence-based cell-based high throughput dose response assay to identify hTAAR1 agonist that also desensitize TAAR1 receptor response.; assay type: functional
# T7 sequence (Q96RJ0 whole entry): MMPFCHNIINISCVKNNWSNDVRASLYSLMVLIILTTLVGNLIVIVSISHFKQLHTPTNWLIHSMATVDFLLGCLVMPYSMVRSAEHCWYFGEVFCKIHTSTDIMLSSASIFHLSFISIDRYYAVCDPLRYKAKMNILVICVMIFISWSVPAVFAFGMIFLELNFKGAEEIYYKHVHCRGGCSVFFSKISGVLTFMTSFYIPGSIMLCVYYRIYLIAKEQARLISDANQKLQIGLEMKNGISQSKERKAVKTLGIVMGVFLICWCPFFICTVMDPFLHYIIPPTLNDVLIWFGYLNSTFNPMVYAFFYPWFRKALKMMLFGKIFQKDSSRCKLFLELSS
# [13] = cells; assay type: functional, cell-based; remark: listed apart in the source
# [14] = target: T7, Trace amine-associated receptor 1; test: Fluorescence-based cell-based high throughput dose response assay to identify agonists of the human trace amine associated receptor 1 (TAAR1).; assay type: functional
# [15] = target: 5-hydroxytryptamine receptor 2A (Mus musculus, UniProt P35363); assay type: functional, cell-based;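 note: CHO-K1 cells with tagged receptor and beta-arrestin; agonist potency measured as compound-induced activation of the receptor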
# 5-hydroxytryptamine receptor 2A, sequence (P35363 whole entry): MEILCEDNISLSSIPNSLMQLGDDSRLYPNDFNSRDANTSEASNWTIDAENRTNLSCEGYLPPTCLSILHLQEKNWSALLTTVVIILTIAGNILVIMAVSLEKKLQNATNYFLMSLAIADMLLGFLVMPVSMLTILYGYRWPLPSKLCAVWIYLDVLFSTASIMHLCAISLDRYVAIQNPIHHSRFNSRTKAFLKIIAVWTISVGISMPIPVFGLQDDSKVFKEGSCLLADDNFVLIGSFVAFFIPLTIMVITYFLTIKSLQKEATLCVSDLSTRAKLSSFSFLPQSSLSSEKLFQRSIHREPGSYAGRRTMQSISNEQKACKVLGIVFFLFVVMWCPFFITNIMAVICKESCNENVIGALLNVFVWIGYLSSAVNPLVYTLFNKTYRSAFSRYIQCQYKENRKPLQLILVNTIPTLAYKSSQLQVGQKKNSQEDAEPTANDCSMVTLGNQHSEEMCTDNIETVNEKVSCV
# [16] = target: Mu-type opioid receptor (Homo sapiens, UniProt P35372); assay type: functional, cell-based;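 note: U2OS cells with beta-arrestin recruitment to OPRM1 by beta-gal complementation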
# Mu-type opioid receptor, sequence (P35372 whole entry): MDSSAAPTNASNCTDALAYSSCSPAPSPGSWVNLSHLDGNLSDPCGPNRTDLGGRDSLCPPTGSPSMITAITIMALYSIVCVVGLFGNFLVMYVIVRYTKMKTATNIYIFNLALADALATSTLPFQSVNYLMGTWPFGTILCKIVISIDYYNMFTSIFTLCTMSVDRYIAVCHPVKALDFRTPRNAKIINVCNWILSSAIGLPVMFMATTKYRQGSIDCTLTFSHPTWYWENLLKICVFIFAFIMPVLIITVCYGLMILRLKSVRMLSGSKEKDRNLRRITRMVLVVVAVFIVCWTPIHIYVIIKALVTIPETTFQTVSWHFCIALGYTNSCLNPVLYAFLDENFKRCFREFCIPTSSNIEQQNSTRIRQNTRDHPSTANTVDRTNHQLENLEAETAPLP
# [17] = target: T8, Methionyl-tRNA synthetase, putative (Trypanosoma brucei brucei, UniProt Q38C91); assay type: functional, Trypanosoma brucei brucei strain 927/4 GUTat10.1
# T8 sequence (Q38C91 whole entry): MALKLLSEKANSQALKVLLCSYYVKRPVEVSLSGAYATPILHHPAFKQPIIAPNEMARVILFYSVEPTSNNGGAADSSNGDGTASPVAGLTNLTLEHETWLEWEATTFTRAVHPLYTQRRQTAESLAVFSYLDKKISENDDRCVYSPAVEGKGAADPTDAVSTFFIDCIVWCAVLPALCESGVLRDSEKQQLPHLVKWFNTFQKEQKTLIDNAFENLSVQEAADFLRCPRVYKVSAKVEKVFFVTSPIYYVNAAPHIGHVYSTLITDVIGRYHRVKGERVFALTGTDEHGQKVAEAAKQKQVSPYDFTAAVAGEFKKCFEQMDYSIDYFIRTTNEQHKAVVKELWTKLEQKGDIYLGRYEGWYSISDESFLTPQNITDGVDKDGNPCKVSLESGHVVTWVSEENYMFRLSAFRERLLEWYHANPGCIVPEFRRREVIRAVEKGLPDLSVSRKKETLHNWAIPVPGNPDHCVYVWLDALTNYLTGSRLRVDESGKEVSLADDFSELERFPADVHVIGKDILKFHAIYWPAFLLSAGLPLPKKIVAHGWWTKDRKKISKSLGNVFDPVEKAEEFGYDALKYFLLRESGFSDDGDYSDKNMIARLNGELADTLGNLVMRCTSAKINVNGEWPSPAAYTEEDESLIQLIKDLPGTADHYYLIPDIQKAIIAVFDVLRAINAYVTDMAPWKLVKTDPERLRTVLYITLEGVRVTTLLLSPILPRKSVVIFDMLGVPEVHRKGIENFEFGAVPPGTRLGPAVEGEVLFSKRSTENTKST
# [18] = target: T8, Methionyl-tRNA synthetase, putative; assay type: functional, Trypanosoma brucei brucei strain 927/4 GUTat10.1; remark: listed apart in the source
# [19] = Counterscreen for inhibitors of Trypanosoma brucei methionyl tRNA synthetase (MetRS): Luminescence-based cell-based high throughput dose response assay to identify compounds that are cytotoxic to Jurkat human T lymphocyte cells.; assay type: functional
# [20] = HEK293T cytotoxicity, dose response, cytotoxicity control for miR-122 modulator project, cell-based, activator set, cherry-pick (AID 720690); assay type: functional;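 note: HEK293T human cells scored for general mammalian cytotoxicity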
# [21] = miR-122 activators in hepatoma reporter cells, dose response, cell-based, Huh7 psiCHECK-miR122, Renilla luciferase, cherry-picked (AID 651956); assay type: functional;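 note: huh7 hepatoma cells stably carrying a psiCHECK-2 miR-122 sensor plasmid; renilla luciferase signal reporting endogenous miR-122 activity after 48 h compound exposure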
# [22] = HEK293T cytotoxicity, dose response, cytotoxicity control for miR-122 modulator project, cell-based, inhibitor set, cherry-pick, set 2 (AID 720697); assay type: functional
# [23] = target: Lethal factor (Bacillus anthracis, UniProt P15917); test: High-throughput multiplex microsphere dose response for inhibitors of toxin protease, specifically Lethal Factor protease, compounds from Powder Set 01.; assay type: functional, Bacillus anthracis str. A2012; conditions: read-out: EC50_MICROM
# [24] = target: Botulinum neurotoxin type F (Clostridium botulinum, UniProt P30996); test: High-throughput multiplex microsphere dose response for inhibitors of toxin protease, specifically Botulinum neurotoxin light chain F protease, compounds from Powder Set 01.; assay type: functional, Clostridium botulinum Bf; conditions: read-out: EC50_MICROM
# Botulinum neurotoxin type F, sequence (P30996 1-436 limits assumed): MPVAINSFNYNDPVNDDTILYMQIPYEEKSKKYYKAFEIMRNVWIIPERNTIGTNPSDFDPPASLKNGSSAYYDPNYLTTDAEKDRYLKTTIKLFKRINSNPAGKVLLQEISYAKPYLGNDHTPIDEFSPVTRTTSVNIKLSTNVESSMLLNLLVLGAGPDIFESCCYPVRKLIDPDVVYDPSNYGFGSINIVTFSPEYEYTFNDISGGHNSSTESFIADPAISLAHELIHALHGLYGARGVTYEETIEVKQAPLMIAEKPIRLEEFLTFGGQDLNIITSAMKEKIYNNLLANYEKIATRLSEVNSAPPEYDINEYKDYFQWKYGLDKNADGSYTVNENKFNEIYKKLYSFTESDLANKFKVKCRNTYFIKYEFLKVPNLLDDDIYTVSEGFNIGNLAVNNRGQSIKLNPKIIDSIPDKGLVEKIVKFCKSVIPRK
# [25] = target: T9, Botulinum neurotoxin type A (Clostridium botulinum (strain Hall / ATCC 3502 / NCTC 13319 / Type A), UniProt P0DPI1); test: High-throughput multiplex microsphere dose response for inhibitors of toxin protease, specifically Botulinum neurotoxin light chain A protease, compounds from Powder Set 01.; assay type: functional, Clostridium botulinum A str. ATCC 3502; conditions: read-out: EC50_MICROM
# T9 sequence (P0DPI1 2-448 limits assumed): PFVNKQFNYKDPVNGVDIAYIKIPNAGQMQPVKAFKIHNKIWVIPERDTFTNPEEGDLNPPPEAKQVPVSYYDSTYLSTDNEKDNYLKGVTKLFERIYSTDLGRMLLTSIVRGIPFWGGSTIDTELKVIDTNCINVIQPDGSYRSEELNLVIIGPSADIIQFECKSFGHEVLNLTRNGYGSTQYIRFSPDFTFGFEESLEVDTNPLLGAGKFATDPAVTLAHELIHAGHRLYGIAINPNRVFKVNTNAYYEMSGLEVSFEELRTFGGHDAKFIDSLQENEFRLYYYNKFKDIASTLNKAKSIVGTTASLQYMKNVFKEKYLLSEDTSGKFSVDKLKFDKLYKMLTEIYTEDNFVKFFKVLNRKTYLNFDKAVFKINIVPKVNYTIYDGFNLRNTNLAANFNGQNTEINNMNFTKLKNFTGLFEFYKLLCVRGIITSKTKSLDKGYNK
# [26] = target: T9, Botulinum neurotoxin type A; test: Confirmatory FRET assay using full length substrates for Botulinum neurotoxin light chain A protease, with Powder Set01.; assay type: functional
# [27] = test system: HeLa; test: HeLa cell cytotoxicity, dose response, cytotoxicity control, ATP luminescence, cherry-pick samples (AID 687004); assay type: functional, cell-based; conditions: Homo sapiens
# [28] = HepG2 cell cytotoxicity, dose response, cytotoxicity control, cherry-picks, set 5 (AID 1053118); assay type: functional, cell-based
# [29] = A549 cell cytotoxicity, dose response, cytotoxicity control, cherry-picks, 26 µM top dose (AID 1053119); assay type: functional, cell-based
# [30] = target: Protein Wnt-3a (Mus musculus, UniProt P27467); test: SAR analysis of small molecule antagonists of Gli-SUFU in a Wnt3a luminescent reporter assay.; assay type: functional
# Protein Wnt-3a, sequence (P27467 whole entry): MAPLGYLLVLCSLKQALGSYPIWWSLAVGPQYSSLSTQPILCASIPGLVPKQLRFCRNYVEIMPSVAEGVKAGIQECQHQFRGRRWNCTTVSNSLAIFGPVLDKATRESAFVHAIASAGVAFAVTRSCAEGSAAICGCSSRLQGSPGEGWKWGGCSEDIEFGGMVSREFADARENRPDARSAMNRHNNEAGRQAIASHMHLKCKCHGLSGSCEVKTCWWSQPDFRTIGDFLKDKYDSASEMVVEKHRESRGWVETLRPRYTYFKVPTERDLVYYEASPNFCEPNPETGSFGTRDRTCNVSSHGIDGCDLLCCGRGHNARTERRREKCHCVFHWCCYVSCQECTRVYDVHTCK
smiles,measurement,setting,value
O=C(CNS(=O)(=O)c1ccc([N+](=O)[O-])cc1)N/N=C/c1ccc(O)cc1O,AC50,[1],9.67 µM (active)
same,EC50,[2],8.33 µM (active)
same,EC50,[3],8.98 µM (active)
same,IC50,[4],128 µM (active)
COC(=O)CCCC1=CC2=C(c3ccccc3)C(=O)C(C)(OC(=O)C3CCCC3)C(=O)C2=CN1CCCCO (stereo not given),IC50,[5],2.93 µM (active)
same,AC50,[6],68.9 µM (active)
same,EC50,[7],18.4 µM (active)
same,IC50,[8],6.43 µM (active)
COc1ccc(-c2occ(C(=O)O)c2C(=O)O)cc1,IC50,[9],23.5 µM (inactive)
same,IC50,[10],> 59.6 µM (inactive)
O=C(C(=O)N1CCc2ccccc2C1)c1cn(CC(=O)N2CCCCC2)c2ccccc12,IC50,[11],> 29.9 µM (inactive)
same,IC50,[12],3.57 µM (active)
same,EC50,[13],> 29.9 µM (inactive)
same,EC50,[14],0.879 µM (active)
Clc1ccc(CN2CCN(c3ncccn3)CC2)cc1,EC50,[15],0.153 µM (active)
same,EC50,[16],92.5 µM (inactive)
O=C(Nc1ccccc1)Nc1nnc(CSCc2ccccc2Cl)s1,IC50,[17],46.7 µM (inactive)
same,IC50,[18],6.26 µM (active)
same,IC50,[19],27.7 µM (inactive)
C[C@@H]1CN([C@@H](C)CO)C(=O)Cc2cc(NC(=O)c3ccncc3)ccc2O[C@H]1CN(C)Cc1ccc(-c2ccccc2)cc1,AC50,[20],23.6 µM (active)
same,AC50,[21],4.94 µM (active)
same,AC50,[22],15.9 µM (active)
Clc1ccc(-c2cn3nc(-c4ccccc4)c(-c4ccccc4)nc3n2)cc1,EC50,[23],1.6 µM (active)
same,EC50,[24],7.4 µM (active)
same,EC50,[25],1 µM (active)
same,EC50,[26],2.4 µM (active)
C[C@@H]1CN([C@@H](C)CO)C(=O)c2cc(NS(=O)(=O)c3cn(C)cn3)ccc2O[C@@H](C)CCCCO[C@@H]1CN(C)Cc1ccc(C(F)(F)F)cc1,AC50,[27],13 µM (active)
O=C(c1cccnc1)N1C[C@@H]2[C@H](c3ccccc31)[C@@H](CO)N2CC1CCCC1,AC50,[28],> 52 µM (inactive)
same,AC50,[29],> 52 µM (inactive)
CC(C)Nc1cc(NC(=O)c2ccccc2)ncn1,IC50,[30],> 21.8 µM (inactive)
